{"source": "paper PMC7523589", "about": "(Analytical methods : advancing methods and applications, 2020)", "key": {"Plk1 [1]": {"target": "T1, Plk1 (Homo sapiens, UniProt P53350)", "T1 sequence (P53350 whole entry)": "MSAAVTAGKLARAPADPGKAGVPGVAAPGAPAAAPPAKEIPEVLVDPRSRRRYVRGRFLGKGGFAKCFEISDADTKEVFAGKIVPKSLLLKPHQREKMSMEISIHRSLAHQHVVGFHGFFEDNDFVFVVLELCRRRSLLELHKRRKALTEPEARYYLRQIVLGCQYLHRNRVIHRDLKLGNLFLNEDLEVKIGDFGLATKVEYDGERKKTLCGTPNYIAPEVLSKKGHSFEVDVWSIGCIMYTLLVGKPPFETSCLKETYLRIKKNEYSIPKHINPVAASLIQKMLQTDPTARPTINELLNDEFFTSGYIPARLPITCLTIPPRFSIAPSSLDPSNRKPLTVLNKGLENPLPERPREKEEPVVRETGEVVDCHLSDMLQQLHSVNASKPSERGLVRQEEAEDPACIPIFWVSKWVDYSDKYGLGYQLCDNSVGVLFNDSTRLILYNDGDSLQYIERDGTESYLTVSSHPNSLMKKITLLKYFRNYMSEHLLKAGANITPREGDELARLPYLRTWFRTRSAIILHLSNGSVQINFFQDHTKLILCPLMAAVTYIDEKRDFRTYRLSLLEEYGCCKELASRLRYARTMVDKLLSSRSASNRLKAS", "conditions": "read-out: Reported Plk1 IC50 values; cited from earlier work"}, "Plk1 [2]": {"target": "T1, Plk1", "assay": "fluorescence recovery assay, probe binding as a function of Plk1 concentration"}, "full-length Plk1": {"target": "full-length Plk1 (Homo sapiens, UniProt P53350)", "sequence (P53350 whole entry)": "as above", "assay": "fluorescence recovery assay, competition of inhibitors with probe 4", "format": "binding"}}, "data": [{"molecule": "SBE13", "values": [{"measurement": "IC50", "setting": "Plk1 [1]", "value": 0.2, "unit": "nM"}]}, {"molecule": "FITC-PEG-Lys(BI2536) [compound 4]", "values": [{"measurement": "Kd", "setting": "Plk1 [2]; 10 nM of probe 4", "value": "32 ± 0.78", "unit": "nM"}, {"measurement": "Kd", "setting": "Plk1 [2]; 20 nM of probe 4", "value": "33 ± 0.98", "unit": "nM"}, {"measurement": "Kd", "setting": "Plk1 [2]; 30 nM of probe 4", "value": "32 ± 1.1", "unit": "nM"}, {"measurement": "Kd", "setting": "Plk1 [2]; 40 nM of probe 4", "value": "38 ± 1.8", "unit": "nM"}, {"measurement": "Kd", "setting": "Plk1 [2]; incubation time 15 minutes", "value": "42 ± 1.5", "unit": "nM"}, {"measurement": "Kd", "setting": "Plk1 [2]; incubation time 30 minutes", "value": "34 ± 1.1", "unit": "nM"}, {"measurement": "Kd", "setting": "Plk1 [2]; incubation time 60 minutes", "value": "32 ± 1.5", "unit": "nM"}]}, {"molecule": "CC[C@@H]1C(=O)N(C)c2cnc(Nc3ccc(C(=O)N[C@H]4CC[C@H](N5CCN(CC6CC6)CC5)CC4)cc3OC)nc2N1C(C)C", "note": "[BI6727]", "values": [{"measurement": "IC50", "setting": "full-length Plk1", "value": "31 ± 0.67", "unit": "nM"}]}]}
